The test system of assay [1] is mitochondria isolated from liver of tilapia (Sarotheridon mossambica). It counts as biochemical.
The test system is the same in assay [2]. It counts as biochemical. The source holds these as a separate data set.
The subject of the next assay is platelets in whole blood. In words: Platelet function testing with the Hemostasis Mechanism Analyzer (HMA): clumping, sticking, clotting in whole blood. It counts as cell-based, human. The note with it: for activity at 3300 µg/mL / activity at 5000 µg/mL / activity at 6700 µg/mL / activity at 700 µg/mL / activity at 1300 µg/mL / activity at 2700 µg/mL / activity at 5300 µg/mL / activity at 10700 µg/mL / activity at 670 µg/mL / activity at 11700 µg/mL / activity at 23300 µg/mL: Homo sapiens, Platelet; for activity at 700 µg/mL: Dosage (mg/ml) 0.7; for activity at 1300 µg/mL: Dosage (mg/ml) 1.3; for activity at 2700 µg/mL: Dosage (mg/ml) 2.7; for activity at 5300 µg/mL: Dosage (mg/ml) 5.3; for activity at 10700 µg/mL: Dosage (mg/ml) 10.7; for activity at 11700 µg/mL: Dosage (mg/ml) 11.7; for activity at 23300 µg/mL: Dosage (mg/ml) 23.3.

Where [3] appears, read: in vitro whole blood assay, clumping, sticking, clotting.
Setting [4] is: read-out: % clump time increase.
[5] abbreviates: read-out: % stick time increase.
[6] abbreviates: 0 dosage = 100, read-out: % clot time increase.
Where [7] appears, read: 0 dosage = 100, read-out: % clump time increase.
[8] abbreviates: 0 dosage = 100, read-out: % stick time increase.
Setting [9] is: Dosage (mg/ml) 3.3, 0 dosage = 100, read-out: % clot time increase.
Setting [10] is: Dosage (mg/ml) 3.3, 0 dosage = 100, read-out: % clump time increase.
Setting [11] is: Dosage (mg/ml) 3.3, 0 dosage = 100, read-out: % stick time increase.
The mark [12] stands for this setting: Dosage (mg/ml) 6.7, 0 dosage = 100, read-out: % clot time increase.
Setting [13] is: Dosage (mg/ml) 6.7, 0 dosage = 100, read-out: % clump time increase.
Where [14] appears, read: Dosage (mg/ml) 6.7, 0 dosage = 100, read-out: % stick time increase.
Setting [15] is: Dosage (mg/ml) 5, 0 dosage = 100, read-out: % clot time increase.
Where [16] appears, read: Dosage (mg/ml) 5, 0 dosage = 100, read-out: % clump time increase.
Where [17] appears, read: Dosage (mg/ml) 5, 0 dosage = 100, read-out: % stick time increase.

≈ marks a conversion by molar mass, not a printed value. Where two headings read alike, the source gives them in different places.

With `Nc1nnn[nH]1` [Compound 34, 1H-tetrazol-5-amine], the “Reversible?” value in assay [1] was “reversible and Yes”. Also, the “IC50 (mg/ml) mitochondria inhibition” value in assay [2] came out at 8.5 mg/mL (≈ 99.9 mM).

As to `Brc1nn[nH]c1Br` [Compound 48, 4,5-dibromo-1H-triazole], the “activity in the platelet assays (active agent or inactive)” value (from here on “activity in the platelet assays”) with platelets in whole blood (setting [3]) is on record as “met the criteria for active agents”. For the same compound, the “Reversible?” value in assay [1] is “reversible and Yes”. For the same compound, the “IC50 (mg/ml) mitochondria inhibition” value in assay [2] stood at 30 mg/mL (≈ 132 mM).

Take `Cc1ncsc1CCOC(=O)C[P+](c1ccccc1)(c1ccccc1)c1ccccc1.[Br-]` [Compound 49, [2-[2-(4-methylthiazol-5-yl)ethoxy]-2-oxo-ethyl]-triphenyl-phosphonium bromide]: the “activity in the platelet assays” value with platelets in whole blood is reported as “significantly reduced platelet activity or aggregation”. In addition, the “Reversible?” value in assay [1] is “irreversible and No”. For the same compound, in assay [2], the “IC50 (mg/ml) mitochondria inhibition” value stood at 8.8 mg/mL.

As to `Clc1nnnn1-c1ccccc1` [Compound 54, 5-chloro-1-phenyl-tetrazole], in the assay with platelets in whole blood (setting [3]), the “activity in the platelet assays” value is “inactive”. Besides, the “IC50 (mg/ml) mitochondria inhibition” value in assay [2] turned out to be 12.5 mg/mL (≈ 69.2 mM).

`NC(=O)c1nn[nH]n1` [Compound 71, 2H-tetrazole-5-carboxamide]: in the assay on platelets in whole blood (read-out: % clot time increase), the activity at 3300 µg/mL was 112%, the activity at 5000 µg/mL is 122% and the activity at 6700 µg/mL was 137%. Also, in the assay with platelets in whole blood (setting [4]), the activity at 3300 µg/mL is 126%, the activity at 5000 µg/mL was found to be 171% and the activity at 6700 µg/mL stood at 236%. In the assay with platelets in whole blood (setting [5]), the activity at 3300 µg/mL is 116%, the activity at 5000 µg/mL was found to be 153% and the activity at 6700 µg/mL worked out at 205%. In assay [2], the “IC50 (mg/ml) mitochondria inhibition” value is 36.3 mg/mL (≈ 321 mM).

Regarding `Cc1cscn1` [Compound 75, 4-methylthiazole], in the assay on platelets in whole blood (setting [6]), the activity at 700 µg/mL is 103%, the activity at 1300 µg/mL was found to be 106%, the activity at 2700 µg/mL turned out to be 108% and the activity at 5300 µg/mL was found to be 114%. The activity at 10700 µg/mL in the assay on platelets in whole blood (setting [6]) was determined as 122%. Moreover, in the assay with platelets in whole blood (setting [7]), the activity at 700 µg/mL is 115%, the activity at 1300 µg/mL was determined as 109%, the activity at 2700 µg/mL came out at 126% and the activity at 5300 µg/mL was 136%. Moreover, the activity at 10700 µg/mL with platelets in whole blood (setting [7]) was 164%. Further, in the assay on platelets in whole blood (setting [8]), the activity at 700 µg/mL was 106%, the activity at 1300 µg/mL was 102%, the activity at 2700 µg/mL is 123% and the activity at 5300 µg/mL is 132%. Besides, the activity at 10700 µg/mL in the assay on platelets in whole blood (setting [8]) was 155%. Besides, the “IC50 (mg/ml) mitochondria inhibition” value in assay [2] was 40.6 mg/mL (≈ 409 mM).

In the case of `Cc1nnn[nH]1` [Compound 76, 5-methyl-1H-tetrazole], in the assay on platelets in whole blood (read-out: % clot time increase), the activity at 670 µg/mL was found to be 91%, the activity at 3300 µg/mL is 120% and the activity at 6700 µg/mL worked out at 301%. In addition, in the assay with platelets in whole blood (setting [4]), the activity at 670 µg/mL worked out at 129% and the activity at 3300 µg/mL was determined as 209%. Also, in the assay on platelets in whole blood (setting [5]), the activity at 670 µg/mL is 125%, the activity at 3300 µg/mL came to 217% and the activity at 6700 µg/mL turned out to be 983%. Further, in assay [2], the “IC50 (mg/ml) mitochondria inhibition” value is 12.6 mg/mL (≈ 150 mM).

`OCc1c[nH]c2ccccc12` [Compound 77, 1H-indol-3-ylmethanol]: the activity at 700 µg/mL was determined as 102% in the assay with platelets in whole blood (setting [6]), 95% in the assay with platelets in whole blood (setting [7]) and 92% in the assay on platelets in whole blood (setting [8]). Further, the activity at 3300 µg/mL amounted to 104% in the assay on platelets in whole blood (setting [9]), 81% in the assay on platelets in whole blood (setting [10]) and 86% in the assay on platelets in whole blood (setting [11]). The activity at 6700 µg/mL in the assay on platelets in whole blood (setting [12]) was determined as 105%; with platelets in whole blood (setting [13]) it was 109%; in the assay on platelets in whole blood (setting [14]), 97%. The activity at 11700 µg/mL with platelets in whole blood (setting [6]) turned out to be 108%; in the assay on platelets in whole blood (setting [7]), 116%; in the assay on platelets in whole blood (setting [8]), 114%. Moreover, the results for the activity at 23300 µg/mL in the assay with platelets in whole blood (setting [6]), with platelets in whole blood (setting [7]) and in the assay with platelets in whole blood (setting [8]) were 126%, 140% and 100%, respectively. Further, in the assay with platelets in whole blood (setting [3]), the “activity in the platelet assays” value is “met the criteria for active agents”. Further, the “IC50 (mg/ml) mitochondria inhibition” value in assay [2] amounted to 82.8 mg/mL (≈ 563 mM).

Regarding `CCOC(=O)Cc1nnn[nH]1` [Compound 80, ethyl 2-(1H-tetrazol-5-yl)acetate], the activity at 3300 µg/mL in the assay with platelets in whole blood (setting [9]) stood at 110%; in the assay with platelets in whole blood (setting [10]) it was 107%; in the assay on platelets in whole blood (setting [11]), 104%. Besides, the activity at 5000 µg/mL amounted to 121% with platelets in whole blood (setting [15]), 143% in the assay with platelets in whole blood (setting [16]) and 141% in the assay on platelets in whole blood (setting [17]). Besides, the activity at 6700 µg/mL in the assay with platelets in whole blood (setting [12]) turned out to be 133%; with platelets in whole blood (setting [13]) it was 207%; with platelets in whole blood (setting [14]), 209%. Besides, the “IC50 (mg/ml) mitochondria inhibition” value in assay [2] came to 100 mg/mL (≈ 640 mM).

For the compound `c1cncnc1` [Compound 81, pyrimidine], in the assay on platelets in whole blood (setting [3]), the “activity in the platelet assays” value was “inactive”. Also, the “IC50 (mg/ml) mitochondria inhibition” value in assay [2] stood at 51.5 mg/mL (≈ 643 mM).

As for `O=C(O)Cc1nnn[nH]1` [Compound 82, 2-(1H-tetrazol-5-yl)acetic acid], the activity at 3300 µg/mL in the assay with platelets in whole blood (setting [9]) is 137%; in the assay on platelets in whole blood (setting [10]), 240%; in the assay on platelets in whole blood (setting [11]) it was 222%. The figures for the activity at 5000 µg/mL in the assay on platelets in whole blood (setting [15]), with platelets in whole blood (setting [16]) and in the assay with platelets in whole blood (setting [17]) were 217%, 755% and 601%, respectively. In addition, the “IC50 (mg/ml) mitochondria inhibition” value in assay [2] came to 11.8 mg/mL (≈ 92.1 mM).

As for `CSc1nnn[nH]1` [Compound 83, 5-methylsulfanyl-1H-tetrazole], the figures for the activity at 3300 µg/mL in the assay with platelets in whole blood (setting [9]), in the assay on platelets in whole blood (setting [10]) and in the assay with platelets in whole blood (setting [11]) were 127%, 167% and 157%, respectively. The activity at 5000 µg/mL in the assay with platelets in whole blood (setting [15]) came out at 191%; in the assay with platelets in whole blood (setting [16]), 584%; in the assay on platelets in whole blood (setting [17]), 512%. In the assay with platelets in whole blood (setting [12]), the activity at 6700 µg/mL worked out at 297%. In assay [1], the “Reversible?” value is “reversible and Yes”. In assay [2], the “IC50 (mg/ml) mitochondria inhibition” value was 14.5 mg/mL (≈ 125 mM).

Turning to `Sc1ncc[nH]1` [Compound 84, 1H-imidazole-2-thiol], the activity at 6700 µg/mL in the assay on platelets in whole blood (setting [12]) was 99%; in the assay on platelets in whole blood (setting [13]) it was 113%; with platelets in whole blood (setting [14]), 105%. Moreover, the activity at 11700 µg/mL is 110% in the assay with platelets in whole blood (setting [6]), 121% with platelets in whole blood (setting [7]) and 111% in the assay on platelets in whole blood (setting [8]). Besides, the activity at 23300 µg/mL with platelets in whole blood (setting [6]) came to 128%; with platelets in whole blood (setting [7]) it was 149%; with platelets in whole blood (setting [8]) it was 142%. In addition, the “activity in the platelet assays” value with platelets in whole blood (setting [3]) is given as “met the criteria for active agents”. In assay [2], the “IC50 (mg/ml) mitochondria inhibition” value was determined as 17.3 mg/mL (≈ 173 mM).

As for `Cn1c(-c2ccccc2)c[nH]c1=S` [Compound 91, 3-methyl-4-phenyl-1H-imidazole-2-thione], the “activity in the platelet assays” value in the assay with platelets in whole blood (setting [3]) is “inactive”. Further, in assay [2], the “IC50 (mg/ml) mitochondria inhibition” value is 5.4 mg/mL (≈ 28.4 mM).

As to `Cc1ncsc1C` [Compound 92, 4,5-dimethylthiazole], the activity at 700 µg/mL in the assay with platelets in whole blood (setting [6]) came to 100%; with platelets in whole blood (setting [7]), 112%; in the assay on platelets in whole blood (setting [8]), 118%. For the same compound, the activity at 3300 µg/mL in the assay on platelets in whole blood (setting [9]) is 101%; in the assay with platelets in whole blood (setting [10]) it was 176%; in the assay with platelets in whole blood (setting [11]) it was 171%. For the same compound, the activity at 6700 µg/mL in the assay on platelets in whole blood (setting [12]) came out at 106%; in the assay with platelets in whole blood (setting [13]) it was 195%; in the assay with platelets in whole blood (setting [14]) it was 179%. In addition, the activity at 11700 µg/mL in the assay on platelets in whole blood (setting [6]) is 126%; with platelets in whole blood (setting [7]) it was 224%; in the assay with platelets in whole blood (setting [8]), 211%. For the same compound, the activity at 23300 µg/mL in the assay with platelets in whole blood (setting [6]) was determined as 162%; with platelets in whole blood (setting [7]), 717%; with platelets in whole blood (setting [8]) it was 546%. Moreover, the “IC50 (mg/ml) mitochondria inhibition” value in assay [2] stood at 50.9 mg/mL (≈ 450 mM).

`Cc1cncs1` [Compound 94, 5-methylthiazole]: in assay [1], the “Reversible?” value was “reversible and Yes”. Besides, the “IC50 (mg/ml) mitochondria inhibition” value in assay [2] came out at 23.5 mg/mL (≈ 237 mM).

On to Thiazole [Compound 47], for which the “activity in the platelet assays” value with platelets in whole blood is “inactive”. Besides, in assay [1], the “Reversible?” value was “reversible and Yes”. Besides, the “IC50 (mg/ml) mitochondria inhibition” value in assay [2] was 21.3 mg/mL.

The values are drawn from US9918964B2, “Reducing platelet activation, aggregation and platelet-stimulated thrombosis or blood coagulation by reducing mitochondrial respiration” (priority 2010, dated 2018).
